Structures are written as SMILES. pIC50: −log10 of the molar value. The source made the active and inactive calls. No cut-off for these calls is given here. Where only a bound is given, the exact number is not on record here.

One test relates to MCF7. Kind of test: Cytotoxicity against human MCF7 cells assessed as reduction in cell viability after 72 hrs by MTT assay. The test is classed as functional, cell-based. The settings on record: for pIC50: MCF7, 72 h.
In the next test the test system is MDA-MB-231. The test can be described thus: Cytotoxicity against human MDA-MB-231 cells assessed as reduction in cell viability after 72 hrs by MTT assay. The test is classed as functional, cell-based. Conditions: for pIC50: MDA-MB-231, 72 h.

For the compound `O=C(/C=C/c1ccccc1)c1ccc(O)cc1O` [2',4'-DIHYDROXYCHALCONE], the pIC50 in the test on MCF7 and in the test with MDA-MB-231 was < 5.00 in each case.

For `O=C1CC(c2ccc(O)cc2)Oc2cc(O)cc(O)c21` (stereo not given), the outcome in the test with MCF7 and in the test with MDA-MB-231 was inactive. For `O=C(/C=C/c1ccc(O)cc1)c1c(O)cc(O)cc1O` [4,2',4',6'-TETRAHYDROXYCHALCONE], the negative-log IC50 (pIC50) in the test on MCF7 and in the test with MDA-MB-231 was < 5.00 in each case. For the compound `COc1ccc(C(=O)/C=C/c2ccc(O)c(OC)c2)c(OC)c1`, the negative-log IC50 (pIC50) is 5.51 in the test on MCF7 and < 5.00 in the test with MDA-MB-231. Turning to `O=C(/C=C/c1ccc(O)cc1)c1cc(Cc2c(O)ccc(C(=O)/C=C/c3ccc(O)cc3)c2O)c(O)cc1O`, the pIC50 in the test with MCF7 and in the test with MDA-MB-231 was < 5.00 throughout.

In the case of `COc1cc(C(=O)/C=C/c2ccc(Cl)c(Cl)c2)cc(OC)c1OC`, the pIC50 is 5.15 with MCF7 and < 5.00 in the test with MDA-MB-231.

As to `COc1ccc(/C=C/C(=O)c2ccc(OC)cc2OC)cc1` [METOCHALCONE], the pIC50 with MCF7 is 5.82; in the test on MDA-MB-231 it was 5.10. The like results for `O=C(/C=C/c1ccc(O)cc1)c1cc(O)ccc1O` were, in that order, < 5.00 and < 5.00. Take `O=C(/C=C/c1ccc(O)cc1)c1ccc(O)cc1` [4,4'-DIHYDROXYCHALCONE]: the negative-log IC50 (pIC50) with MCF7 and in the test with MDA-MB-231 was < 5.00 throughout. For the compound `COc1ccc(/C=C/C(=O)c2cc(OC)c(OC)c(OC)c2)cc1`, the pIC50 with MCF7 was 6.15; with MDA-MB-231, 5.19.

`COc1ccc(C(=O)CCc2ccccc2)c(O)c1`: the pIC50 with MCF7 and in the test on MDA-MB-231 was < 5.00 throughout. As for `O=C(CCc1ccc(O)cc1)c1c(O)cc(O)cc1O` [PHLORETIN], the negative logarithm of the IC50 (pIC50) in the test with MCF7 and in the test on MDA-MB-231 was < 5.00 in each case. As to `COc1cc(/C=C/C(=O)c2ccc(OC)c(OC)c2OC)cc(OC)c1OC`, the pIC50 in the test on MCF7 is < 5.00; in the test on MDA-MB-231 it was 5.13. On to `O=C(/C=C/c1ccc(O)cc1)c1ccc(O)cc1O` [ISOLIQUIRITIGENIN], for which the pIC50 with MCF7 and with MDA-MB-231 was < 5.00 in each case.

Turning to `O=C(CCc1ccc(O)cc1)c1ccc(O)cc1O` [DAVIDIGENIN], the negative logarithm of the IC50 (pIC50) with MCF7 and with MDA-MB-231 was < 5.00 each time. Consider `CC(=O)O[C@H]1C(=O)[C@@]2(C)[C@H]([C@H](OC(=O)c3ccccc3)[C@]3(O)C[C@H](OC(=O)[C@H](O)[C@@H](NC(=O)c4ccccc4)c4ccccc4)C(C)=C1C3(C)C)[C@]1(OC(C)=O)CO[C@@H]1C[C@@H]2O` [PACLITAXEL], for which the pIC50 in the test with MDA-MB-231 was 8.41. With `O=C(/C=C/c1ccc(O)cc1)c1ccc(O)c(O)c1O`, the negative logarithm of the IC50 (pIC50) with MCF7 and in the test on MDA-MB-231 was < 5.00 each time.

In the case of `COc1ccc2c(c1)OC(c1ccccc1)CC2=O` (stereo not given), the outcome in the test with MCF7 and with MDA-MB-231 was inactive.

Source of the values: ChEMBL document CHEMBL3779875, “Cytotoxic Evaluation against Breast Cancer Cells of Isoliquiritigenin Analogues from Spatholobus suberectus and Their Synthetic Derivatives” (J Nat Prod, 2016).
